From article PMC6068282, “In Silico Discovery of Plant-Origin Natural Product Inhibitors of Tumor Necrosis Factor (TNF) and Receptor Activator of NF-κB Ligand (RANKL)” (Frontiers in Pharmacology, 2018)

Target: T1, TNF / human TNF (TNF/TNFR1 ELISA) (Homo sapiens, UniProt P01375)
T1 construct: recombinant human TNF (soluble; biologically active homotrimer); with Tumor necrosis factor receptor superfamily member 1A
Experiment: ELISA, TNF binding to TNFR1

T1 sequence (P01375 77-233): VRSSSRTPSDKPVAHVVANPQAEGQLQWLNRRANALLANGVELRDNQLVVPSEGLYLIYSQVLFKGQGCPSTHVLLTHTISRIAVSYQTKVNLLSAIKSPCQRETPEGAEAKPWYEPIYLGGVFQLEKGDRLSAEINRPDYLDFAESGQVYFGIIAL

In the case of Oc1ccc([C@@H]2c3c(O)cc4c(c3[C@H]3[C@H](c5ccc(O)cc5)c5c(O)cc6c(c5[C@@H]23)[C@@H](c2cc(O)cc(O)c2)[C@H](c2ccc(O)cc2)O6)[C@@H](c2cc(O)cc(O)c2)[C@H](c2ccc(O)cc2)O4)cc1 [A11, (1R,2R,6R,6aR,7R,8R,12R,12aR)-1,7-Bis(3,5-dihydroxyphenyl)-2,6,8,12-tetrakis(4-hydroxyphenyl)-1,2,6,6a,7,8,12,12a-octahydrofuro[2″,3″:6′,7′]indeno[1′,2′:2,3]indeno [5,4-b]furan-5,11-diol], the IC50 is reported as 3.3 ± 0.9 µM.
C[C@@H]1O[C@@H](Oc2c(-c3ccc(O)cc3)oc3cc(O)cc(O)c3c2=O)[C@H](O[C@@H]2O[C@H](COC(=O)/C=C/c3ccc(O)cc3)[C@@H](O)[C@H](O)[C@H]2O)[C@H](O)[C@H]1O [A25, [(2R,3S,4S,5R,6S)-6-[(2S,3R,4R,5R,6S)-2-[5,7-dihydroxy-2-(4-hydroxyphenyl)-4-oxochromen-3-yl]oxy-4,5-dihydroxy-6-methyloxan-3-yl]oxy-3,4,5-trihydroxyoxan-2-yl]methyl(E)-3-(4-hydroxyphenyl)prop-2-enoate] was tested, and the IC50 was 4.1 ± 1.7 µM.
